# Assay results from ChEMBL document CHEMBL1201862, “PubChem BioAssay data set” (2004).
#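 Cultured in 96-well plates, cells were exposed to test compound for 48 hours across five concentrations. GI50 is the concentration that inhibits growth by half.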 Activity calls are given as the source filed them. Rule as the data show it: active = GI50 up to about 1.1 µM and inactive = higher.
# Key:
# Experiment in all cases: inhibition of tumour cell growth, NCI panel, 48 h
# SW-620 = system: SW-620
# SNB-19 = system: SNB-19
# NCI/ADR-RES = system: NCI/ADR-RES
# A498 = system: A498
# TK-10 = system: TK-10
# HT-29 = system: HT-29
# BT-549 = system: BT-549
# SK-OV-3 = system: SK-OV-3
# HL-60 = system: HL-60
# PC-3 = system: PC-3
# SN12C = system: SN12C
# SK-MEL-2 = system: SK-MEL-2
# 786-0 = system: 786-0
# T47D = system: T47D
# CAKI-1 = system: CAKI-1
# ACHN = system: ACHN
# MCF7 = system: MCF7
# MDA-N = system: MDA-N
# A549 = system: A549
# SR = system: SR
# SK-MEL-5 = system: SK-MEL-5
# EKVX = system: EKVX
# DU-145 = system: DU-145
# OVCAR-3 = system: OVCAR-3
# UO-31 = system: UO-31
# OVCAR-4 = system: OVCAR-4
# IGROV-1 = system: IGROV-1
# MDA-MB-231 = system: MDA-MB-231
# HCC 2998 = system: HCC 2998
# OVCAR-5 = system: OVCAR-5
# M14 = system: M14
# NCI-H460 = system: NCI-H460
# OVCAR-8 = system: OVCAR-8
# CCRF-CEM = system: CCRF-CEM
# COLO 205 = system: COLO 205
# HOP-92 = system: HOP-92
# MDA-MB-435 = system: MDA-MB-435
# UACC-257 = system: UACC-257
# UACC-62 = system: UACC-62
# SF-268 = system: SF-268
# K562 = system: K562
# SF-295 = system: SF-295
# KM12 = system: KM12
# U-251 = system: U-251
# RPMI-8226 = system: RPMI-8226
# HCT-15 = system: HCT-15
# LOX IMVI = system: LOX IMVI
# SF-539 = system: SF-539
# HCT-116 = system: HCT-116
# Hs-578T = system: Hs-578T
# SK-MEL-28 = system: SK-MEL-28
# HOP-62 = system: HOP-62
# SNB-75 = system: SNB-75
# MOLT-4 = system: MOLT-4
# RXF 393 = system: RXF 393
# Malme-3M = system: Malme-3M
# NCI-H226 = system: NCI-H226
# NCI-H23 = system: NCI-H23
# NCI-H522 = system: NCI-H522
smiles,measurement,setting,value
Oc1c(Br)cc(/C=C/c2ccnc(/C=C/c3cc(Br)c(O)c(Br)c3)c2)cc1Br,GI50,SW-620,35.6 µM (inactive)
same,GI50,SNB-19,35.8 µM (inactive)
same,GI50,NCI/ADR-RES,31.6 µM (inactive)
same,GI50,A498,18.9 µM (inactive)
same,GI50,TK-10,27.2 µM (inactive)
same,GI50,HT-29,21.7 µM (inactive)
same,GI50,BT-549,33.4 µM (inactive)
same,GI50,SK-OV-3,34.2 µM (inactive)
same,GI50,HL-60,14.5 µM (inactive)
same,GI50,PC-3,16.4 µM (inactive)
same,GI50,SN12C,51.3 µM (inactive)
same,GI50,SK-MEL-2,14.9 µM (inactive)
same,GI50,786-0,18.2 µM (inactive)
same,GI50,T47D,16.7 µM (inactive)
same,GI50,CAKI-1,35.5 µM (inactive)
same,GI50,ACHN,28.4 µM (inactive)
same,GI50,MCF7,24.2 µM (inactive)
same,GI50,MDA-N,33.5 µM (inactive)
same,GI50,A549,23.6 µM (inactive)
same,GI50,SR,17.8 µM (inactive)
same,GI50,SK-MEL-5,19.1 µM (inactive)
same,GI50,EKVX,25.4 µM (inactive)
same,GI50,DU-145,20.4 µM (inactive)
same,GI50,OVCAR-3,19.7 µM (inactive)
same,GI50,UO-31,19.2 µM (inactive)
same,GI50,OVCAR-4,30.3 µM (inactive)
same,GI50,IGROV-1,32.4 µM (inactive)
same,GI50,MDA-MB-231,21.9 µM (inactive)
same,GI50,HCC 2998,25.8 µM (inactive)
same,GI50,OVCAR-5,25.5 µM (inactive)
same,GI50,M14,25.1 µM (inactive)
same,GI50,NCI-H460,12.6 µM (inactive)
same,GI50,OVCAR-8,26.8 µM (inactive)
same,GI50,CCRF-CEM,22.6 µM (inactive)
same,GI50,COLO 205,27.4 µM (inactive)
same,GI50,HOP-92,30.8 µM (inactive)
same,GI50,MDA-MB-435,26.7 µM (inactive)
same,GI50,UACC-257,26.2 µM (inactive)
same,GI50,UACC-62,24.3 µM (inactive)
same,GI50,SF-268,40.3 µM (inactive)
same,GI50,K562,24.2 µM (inactive)
same,GI50,SF-295,27.5 µM (inactive)
same,GI50,KM12,19.1 µM (inactive)
same,GI50,U-251,15.2 µM (inactive)
same,GI50,RPMI-8226,20.7 µM (inactive)
same,GI50,HCT-15,23.6 µM
same,GI50,LOX IMVI,29.2 µM (inactive)
same,GI50,SF-539,18.5 µM (inactive)
same,GI50,HCT-116,17 µM (inactive)
same,GI50,Hs-578T,54.2 µM (inactive)
same,GI50,SK-MEL-28,39 µM (inactive)
same,GI50,HOP-62,34.4 µM (inactive)
same,GI50,SNB-75,19.1 µM (inactive)
same,GI50,MOLT-4,21 µM (inactive)
C=CC(=O)NC(O)(C(=O)OCC)C(F)(F)F (stereo not given),GI50,SW-620,> 100 µM (inactive)
same,GI50,SNB-19,> 100 µM (inactive)
same,GI50,NCI/ADR-RES,> 100 µM (inactive)
same,GI50,TK-10,> 100 µM (inactive)
same,GI50,HT-29,> 100 µM (inactive)
same,GI50,BT-549,> 100 µM (inactive)
same,GI50,SK-OV-3,> 100 µM (inactive)
same,GI50,RXF 393,> 100 µM (inactive)
same,GI50,HL-60,35 µM (inactive)
same,GI50,PC-3,> 100 µM (inactive)
same,GI50,SN12C,> 100 µM (inactive)
same,GI50,SK-MEL-2,> 100 µM (inactive)
same,GI50,T47D,> 100 µM (inactive)
same,GI50,CAKI-1,> 100 µM (inactive)
same,GI50,ACHN,> 100 µM (inactive)
same,GI50,MCF7,> 100 µM (inactive)
same,GI50,MDA-N,> 100 µM (inactive)
same,GI50,A549,> 100 µM (inactive)
same,GI50,SR,64.4 µM (inactive)
same,GI50,SK-MEL-5,> 100 µM (inactive)
same,GI50,EKVX,> 100 µM (inactive)
same,GI50,DU-145,> 100 µM (inactive)
same,GI50,OVCAR-3,> 100 µM (inactive)
same,GI50,Malme-3M,> 100 µM (inactive)
same,GI50,UO-31,> 100 µM (inactive)
same,GI50,OVCAR-4,> 100 µM (inactive)
same,GI50,IGROV-1,> 100 µM (inactive)
same,GI50,MDA-MB-231,> 100 µM (inactive)
same,GI50,HCC 2998,> 100 µM (inactive)
same,GI50,OVCAR-5,> 100 µM (inactive)
same,GI50,M14,> 100 µM (inactive)
same,GI50,OVCAR-8,> 100 µM (inactive)
same,GI50,CCRF-CEM,> 100 µM (inactive)
same,GI50,COLO 205,> 100 µM (inactive)
same,GI50,HOP-92,> 100 µM (inactive)
same,GI50,NCI-H226,> 100 µM (inactive)
same,GI50,NCI-H23,> 100 µM (inactive)
same,GI50,MDA-MB-435,> 100 µM (inactive)
same,GI50,UACC-257,> 100 µM (inactive)
same,GI50,UACC-62,> 100 µM (inactive)
same,GI50,SF-268,> 100 µM (inactive)
same,GI50,K562,> 100 µM (inactive)
same,GI50,SF-295,> 100 µM (inactive)
same,GI50,NCI-H522,> 100 µM (inactive)
same,GI50,KM12,> 100 µM (inactive)
same,GI50,U-251,> 100 µM (inactive)
same,GI50,RPMI-8226,> 100 µM (inactive)
same,GI50,HCT-15,> 100 µM
same,GI50,LOX IMVI,> 100 µM (inactive)
same,GI50,SF-539,> 100 µM (inactive)
same,GI50,HCT-116,> 100 µM (inactive)
same,GI50,Hs-578T,> 100 µM (inactive)
same,GI50,SK-MEL-28,> 100 µM (inactive)
same,GI50,HOP-62,> 100 µM (inactive)
same,GI50,SNB-75,> 100 µM (inactive)
same,GI50,MOLT-4,> 100 µM (inactive)
